Source: patent US11572379B2, “Monomaleimide-functionalized platinum compounds for cancer therapy” (Medizinische Universität Wien, priority 2015, dated 2023)
“Also recorded” adds a separate entry of the source.

Columns and labels:
[1] = system: L1210 murine leukemia cells; experiment: L1210 leukemia in vivo assay (survival); conditions: L1210 i.p., male DBA/2J×Balb/c SCID F1 mice
Experimental: L1210 murine leukemia cells (1×10^5) were injected intraperitoneally in a volume of 0.2 mL into female DBA/2J (cisplatin-releasing drugs) or male DBA/2J×Balb/c SCID F1 mice (oxaliplatin-releasing drugs). Compounds (see FIG. 4; dissolved as described above) were administered intraperitoneally at drug concentrations equimolar to 3 mg/kg cisplatin and 9 mg/kg oxaliplatin, respectively, on day 1, 5, and 9. Toxicity was monitored by daily observation of animals and registration of their body weight. Therapeutic efficacy of the drug candidate was monitored by recording the lengths of survival of experimental mice compared to untreated control animals.

CT-26 colon cancer cells = experiment: CT-26 colon cancer in vivo assay for anticancer activity; parameters: species or system Balb/c mice
Experimental: CT-26 colon cancer cells (5×10^5 in serum-free medium) were injected subcutaneously into the right flank of Balb/c mice. Animals were treated with the indicated oxaliplatin-releasing drugs at concentrations equimolar to 9 mg/kg oxaliplatin (i.v.; KP2156, KP2299 (compound 12), and KP2541 (compound 22) were dissolved in 0.9% NaCl solution, KP2260 (compound 11) was dissolved in 10% propylene glycol/0.9% NaCl and oxaliplatin was dissolved in 5% glucose solution according to the clinical protocol) twice a week (Mondays and Thursdays). Also in case of KP2552 (mixture of compounds 23 and 24, with the 4-methyl-1,2-cyclohexanediamine moiety) the solvent and application scheme of oxaliplatin was used. In case of cisplatin-releasing prodrugs KP2372 (compound 8) and KP2540 (compound 30), a dose equimolar to 3 mg/kg cisplatin was applied twice a week. For the carboplatin derivative KP2551 (compound 20) a dose equimolar to 12 mg/kg carboplatin was applied. The complexes were dissolved in 0.9% NaCl, while for the platinum(II) drugs 5% glucose solution was used according to the clinical protocol. Animals were controlled for distress development every day and tumor size was assessed regularly by caliper measurement. Tumor volume was calculated using the formula: (length×width^2).

Aqueous solubility = conditions: compared to KP2260
B16 melanoma cells = experiment: B16 melanoma in vivo assay for anticancer activity; conditions: male C57/B6JRj mice, i.v. twice a week, equimolar to 9 mg/kg oxaliplatin
Experimental: B16 melanoma cells (1×10^5 in serum-free medium) were injected subcutaneously into the right flank of male C57/B6JRj mice. Animals were treated with KP2299 at concentrations equimolar to 9 mg/kg oxaliplatin (i.v.; dissolved in 0.9% NaCl solution) twice a week. Oxaliplatin was dissolved in 5% glucose solution according to the clinical protocol. Animals were controlled for distress development every day and tumor size was assessed regularly by caliper measurement. Tumor volume was calculated using the formula: (length×width^2).

[2] = RP-HPLC stability studies: hydrolytic stability in buffered aqueous solution at different pH values; format: physicochemical; conditions: 0.5 mM, 20° C.; for stability (decrease of the compound peak area): over 24 h; for hydrolysis: 24 hours
Experimental: The stability of the compounds of the invention in aqueous solutions at different pH values was evaluated by incubation of compound 12 (KP2299) in different buffers and subsequent monitoring of the decrease of the compound peak area with the UV/VIS detector of a RP-HPLC system at 250 nm. Therefore, compound 12 was dissolved at a concentration of 0.5 mM in either 100 mM phosphate buffer pH=7.4, 100 mM sodium acetate buffer pH=6.3, 100 mM sodium acetate buffer pH=5.3 or 100 mM sodium acetate buffer pH=4.3 and incubated at 20° C. for 24 hours. All the measurements were carried out on an Ultimate 3000 RS system (Thermo Scientific, Waltham, Mass., USA) controlled by Chromeleon 7.2 SR4 software using an Acquity BEH C18 reversed phase column (50×3.0 mm, 1.7 μm particle size) from Waters (Milford, USA). Following conditions were used for the runs: flow rate 0.6 mL/min, sampler temperature: 20° C., column oven temperature 25° C., injection volume 10 μL, gradient 5-95% MeOH (and H2O (+0.1% HCOOH)) in 10 min. The compound was first measured directly after the preparation of the compound (after 2-3 min) and thereafter every 60 min. The decrease of the compound was calculated by the compound peak areas relatively to the peak area directly after the preparation of the compound. […] At pH=6.3 the hydrolysis is below 0.5%/h, whereas at pH=7.4 the hydrolysis is quite fast with ˜2.6%/h (see FIG. 5). Corresponding results can be obtained when the further compounds of the invention are tested.

[3] = Balb/c mice, twice a week, dose equimolar to 3 mg/kg cisplatin
[4] = Balb/c mice, i.v. twice a week, equimolar to 9 mg/kg oxaliplatin
[5] = male Balb/c mice, dose equimolar to 12 mg/kg carboplatin

With `O=C1[O][Pt]2([NH][C@@H]3CCCC[C@H]3[NH]2)[O]C1=O` [oxaliplatin, reference compound] the “treated animals with life prolongation” value ([1]; i.p. day 1, 5, 9, 9 mg/kg oxaliplatin) was roughly 50%.

For `CC(=O)[O][Pt]([Cl])([Cl])[O]C(=O)NCCN1C(=O)C=CC1=O.N.N` [KP2372, (OC-6-44)-Acetatodiamminedichlorido[2-(2,5-dioxo-2,5-dihydro-1H-pyrrol-1-yl)ethylcarbamato]platinum(IV)], the “anticancer activity against CT-26 tumors (tumor growth)” value (from here on “anticancer activity … (tumor growth)”) (CT-26 colon cancer cells; [3]) was “only marginally active; also recorded: widely inactive”.

For “(OC-6-34)-Acetato[(1R,2R)-cyclohexane-1,2-diamine]oxalato[2-(2,5-dioxo-2,5-dihydro-1H-pyrrol-1-yl)ethylcarbamato]platinum(IV) [KP2299]”, the “anti-leukemic activity (survival)” value ([1]; i.p. day 1, 5, 9, equimolar to 9 mg/kg oxaliplatin) was “distinct anti-leukemic activity”, the aqueous solubility (Aqueous solubility) was “highly increased” and the “anticancer activity … (tumor growth)” value (CT-26 colon cancer cells; [4]) was “distinctly more active than all other tested compounds; also recorded: distinctly higher anticancer activity; also recorded: exceptionally increased anticancer activity”. For the same compound, the complete remission (CT-26 colon cancer cells; CT-26, female mice, equimolar to 9 mg/kg oxaliplatin i.v. twice a week) was 3 out of 4, the “anticancer activity against B16 tumors” value (B16 melanoma cells) was “exceptionally increased anticancer activity” and the “stability (decrease of the compound peak area)” value ([2]; pH=4.3, 100 mM sodium acetate buffer) was “stable”. For the same compound, the “stability (decrease of the compound peak area)” value ([2]; pH=5.3, 100 mM sodium acetate buffer) was “stable”, the hydrolysis ([2]; pH=6.3, 100 mM sodium acetate buffer) was “below 0.5 %/h” and the hydrolysis ([2]; pH=7.4, 100 mM phosphate buffer) was roughly 2.6 %/h.

In the case of `CC(=O)[O][Pt]([Cl])([Cl])[O]C(=O)NCCCCCN1C(=O)C=CC1=O.N.N` [KP2540, (OC-6-44)-Acetatodiamminedichlorido[5-(2,5-dioxo-2,5-dihydro-1H-pyrrol-1-yl)pentylcarbamato]platinum(IV)], the “anticancer activity … (tumor growth)” value (CT-26 colon cancer cells; [3]) is reported as “only marginally active; also recorded: widely inactive”.

For “(OC-6-34)-[(1R,2R)-Cyclohexane-1,2-diamine]methoxidooxalato[2-(2,5-dioxo-2,5-dihydro-1H-pyrrol-1-yl)ethylcarbamato]platinum(IV) [KP2260]”, the “anticancer activity … (tumor growth)” value (CT-26 colon cancer cells; [4]) was “far less or at least later active”.

For “(OC-6-44)-Acetato[(1R,2R)-cyclohexane-1,2-diamine]oxalato[4-(2,5-dioxo-2,5-dihydro-1H-pyrrol-1-yl)butanoato]platinum(IV) [KP2541]”, the “anticancer activity … (tumor growth)” value (CT-26 colon cancer cells; [4]) was “far less or at least later active”.

In the case of `CC(=O)[O][Pt]1([NH2])([NH2])([O]C(=O)NCCN2C(=O)C=CC2=O)[O]C(=O)C2(CCC2)C(=O)[O]1` [KP2551, (OC-6-34)-Acetatodiamminecyclobutane-1,1-dicarboxylato[2-(2,5-dioxo-2,5-dihydro-1H-pyrrol-1-yl)ethylcarbamato]platinum(IV)], the “anticancer activity … (tumor growth)” value (CT-26 colon cancer cells; [5]) is reported as “distinctly more active than all other tested compounds; also recorded: very strong anticancer activity”.

In the case of `[NH2][Pt]1([NH2])[O]C(=O)C2(CCC2)C(=O)[O]1` [carboplatin, (SP-4-2)-Diamminecyclobutane-1,1-dicarboxylatoplatinum(II), reference compound], the “anticancer activity … (tumor growth)” value (CT-26 colon cancer cells; [5]) is reported as “no impact”.
